The nature of series [1]: Absorbance in 1,4-dioxane-water mixtures (D50, spirolactone-zwitterion equilibrium). The format is physicochemical. Conditions: 1,4-Dioxane-Water with constant 0.3% SDS additive; dielectric constant at which absorbance is halved. The procedure:
The D50 values indicated herein are determined by measuring the respective absorbance of a sample (dye isomer or derivative or conjugate thereof), in varied water-1,4-dioxane mixtures with known dielectric constants according to an established method (e.g. Åkerlöf G, Short AO. J Am Chem Soc 1936, 58(7): 1241-1243). D50 is commonly used as numeric value for the evaluation of the equilibrium changes and represents a dielectric constant at which absorbance is halved (Butkevich A. N.; Mitronova G. Y.; Sidenstein. S. C.; Klocke J. L.; Kamin D.; Meineke D. N. H.; D'Este E.; Kraemer P. T.; Danzl J. G.; Belov V. N.; Hell S. W., Angew. Chem. Int. Ed. 2016, 55, 3290-3294).
The D50 values were calculated using the following equation:
where A0—absorbance at λmax at εr=0, λmax—the highest reached absorbance at λmax, d—dielectric constant of 1,4-dioxane-water mixture at a given point, Hill—Hill slope coefficient determining the steepness of a dose-response curve, D50—corresponds to d value that provokes half of the absorbance amplitude (λmax−A0).
Measurements of the absorbance changes in 1,4-dioxane-water mixtures were performed by pipetting 2 μL stock solutions of dyes or probes in DMSO into a 96 glass bottom well plate (11 wells per sample) made from propylene (Corning 3364). To the wells going from right to left 300 μL of 1,4-dioxane-water mixtures containing 100%, 90%, 80%, 70%, 60%, 50%, 40%, 30%, 20%, 10% or 0% 1,4-dioxane was added (if needed, mixtures with 0.3% SDS are used, with an exception in 100% dioxane due to solubility issues). After incubation for 1 hour at room temperature, absorption of solutions in each well was recorded from 320 nm to 850 nm with wavelength step size of 1 nm on a multiwell plate reader Spark® 20M (Tecan). The background absorption of the glass bottom plate was measured in wells containing only 1,4-dioxane-water mixture with similar amount of DMSO and subtracted from the spectra of the samples. […]
where A0—absorbance at λmax at εr=0, λmax—the highest reached absorbance at λmax. d—dielectric constant of 1,4-dioxane-water mixture at a given point, Hill—Hill slope coefficient determining the steepness of a dose-response curve, D50—corresponds to d value that provokes half of the absorbance amplitude (λmax−A0).
The ability of the fluorophores to switch between spirolactone and zwitterion states can be characterized by measuring the absorbance in water-1,4-dioxane mixtures with known dielectric constant (Åkerlöf G, Short A O. J Am Chem Soc 1936, 58(7): 1241-1243). D50 is commonly used as numeric value for the evaluation of the equilibrium changes and represents a dielectric constant at which absorbance is halved.

The next series has as its system HeLa cells. Put plainly: Cell cycle analysis by imaging flow cytometry and EC50 determination (subG1 cells, cytotoxicity of tubulin probes). The format is cell-based. Conditions: 24 h incubation at 37° C. in growth media; compared with parent compound larotaxel. As to the method:
HeLa cells were grown in 6-well plates (^˜250.000 cells per well) for 24 h in the presence of the fluorescent probe in variable concentrations. The probes were dissolved in DMSO at 500-2000-fold stock concentration and added to the media of cultured cells at 500-2000-fold dilution accordingly. In parallel, the appropriate DMSO control samples were prepared by adding corresponding amount of DMSO volume to the separate well. Cells were processed according to the NucleoCounter® NC-3000™ two-step cell cycle analysis protocol for cells attached to T-flasks, cell culture plates or micro-carriers. […] Cells were counted on a NucleoCounter® NC-3000™ in NC-Slide A2™ slides (Chemometec, Cat. No. 942-0001) loaded with ˜30 μl of each of the cell suspensions into the chambers of the slide. Each time, ^˜10.000 cells in total were measured, and the obtained cell cycle histograms were analysed with ChemoMetec NucleoView NC-3000 software, version 2.1.25.8. […] The EC50 values were determined by plotting the percentage of cells in subG1 phase and fitting the curve in GraphPad Prism 6 to the following function: […]
As mentioned above, FIG. 3. illustrates the tubulin labelling of mammalian cells: a, structures of the tubulin probes. b, Wide-field fluorescence microscopy of living primary fibroblasts stained 100 nM TMR-LTX isomers for 1 h at 37° C. […]
A general note: Flow cytometry measures light scatter and fluorescence of single cells or particles in a stream.

A further series relates to tubulin. Put plainly: Wide-field fluorescence microscopy of living primary fibroblasts stained with tubulin probes. The format is cell-based, human. The procedure: Human primary dermal fibroblasts and HeLa cells were cultured in high-glucose DMEM (Life Technologies, Cat. No. 31053-028) supplemented with GlutaMAX-1 (Life Technologies, Cat. No. 35050-038) and 10% fetal bovine serum (FBS, Life Technologies, Cat. No. 10270-106) in a humidified 5% CO2 incubator at 37° C. The cells were split every 3-4 days or at confluence. Cells were seeded in glass bottom 12-well plates (MatTek Corporation, Cat. No. P12G-1.0-14-F).
Cells were stained with the fluorescent probes in DMEM (Thermo Fisher Scientific, Cat. No. 31053-028) supplemented with 10% FBS (Thermo Fisher Scientific, Cat. No. 10082139) at 37° C. and 5% CO2. […]
Actin/tubulin cytosolic signal was estimated using CellProfiler v.3.1.8. […] The background was subtracted from the original probe channel, and actin/tubulin staining was measured as mean pixel intensity per object in background-corrected probe channel. […]
As mentioned above, FIG. 3. illustrates the tubulin labelling of mammalian cells: a, structures of the tubulin probes. b, Wide-field fluorescence microscopy of living primary fibroblasts stained 100 nM TMR-LTX isomers for 1 h at 37° C. […] Hoechst staining is shown in cyan and all tubulin probes were shown in magenta. c, Quantification of fluorescence signal in the cytoplasm of living cells stained with tubulin probes. […]

Each structure is given as a SMILES string. Bounds are passed on as bounds.

The record followed here is patent US20230104281A1, “FLUORESCENT RHODAMINE DYES WITH ENHANCED CELL PERMEABILITY” (Max-Planck-Gesellschaft zur Foerderung der Wissenschaften …, priority 2020, published 2023).

On to `CNc1ccc2c(c1)C(C)(C)c1cc(NC)ccc1C21OC(=O)c2c(C(=O)NCCCCCCCC(=O)N[C@@H](c3ccccc3)[C@@H](O)C(=O)O[C@H]3C[C@@]4(O)[C@@H](OC(=O)c5ccccc5)[C@@H]5[C@]6(OC(C)=O)CO[C@@H]6C[C@@H]6C[C@@]65C(=O)[C@H](OC(C)=O)C(=C3C)C4(C)C)cccc21` [580CP-LTX 4′-isomer], for which the D50 in series [1] is given as 62 ± 1.

For `CO[C@H]1C(=O)[C@]2(C)[C@@H](OC)C[C@H]3OC[C@@]3(OC(C)=O)[C@H]2[C@H](OC(=O)c2ccccc2)[C@]2(O)C[C@H](OC(=O)[C@H](O)[C@@H](NC(=O)CCCCCCCNC(=O)c3cccc4c3C(=O)OC43c4ccc(N(C)C)cc4C(C)(C)c4cc(N(C)C)ccc43)c3ccccc3)C(C)=C1C2(C)C` [610CP-CTX 4′-isomer], in series [1], the D50 was 65 ± 2.

On to `CO[C@H]1C(=O)[C@]2(C)[C@@H](OC)C[C@H]3OC[C@@]3(OC(C)=O)[C@H]2[C@H](OC(=O)c2ccccc2)[C@]2(O)C[C@H](OC(=O)[C@H](O)[C@@H](NC(=O)CCCCCCCNC(=O)c3cccc4c3C(=O)OC43c4ccc(N(C)C)cc4[Si](C)(C)c4cc(N(C)C)ccc43)c3ccccc3)C(C)=C1C2(C)C` [SiR-CTX 4′-isomer], for which the D50 in series [1] was more than 80.

`CC(=O)O[C@H]1C(=O)[C@]23C[C@H]2C[C@H]2OC[C@@]2(OC(C)=O)[C@H]3[C@H](OC(=O)c2ccccc2)[C@]2(O)C[C@H](OC(=O)[C@H](O)[C@@H](NC(=O)CCCCCCCNC(=O)c3cccc4c3C(=O)OC43c4ccc(N(C)C)cc4Oc4cc(N(C)C)ccc43)c3ccccc3)C(C)=C1C2(C)C` [TMR-LTX 4′-isomer]: the D50 in series [1] is 26.5 ± 0.5. Also, the “EC50, accumulation of subG1 phase cells (cytotoxicity)” value in the series on HeLa cells is listed as “almost as efficiently as parent compound”. In the series on tubulin (living cells, 100 nM probe, 1 h at 37° C., compared to 5′- and 6′-isomers), the membrane permeability entry is “excellent membrane permeability”. In addition, the tubulin labelling specificity entry in the series with tubulin (mammalian cells, simple incubation with probe) was “highly specific tubulin labelling”.
